# From ChEMBL document CHEMBL1132786, “Chemical modification of nodulisporic acid A: preliminary structure-activity relationships” (2000)
# Tested on: Ctenocephalides felis
# Test: Systemic activity against adult cat fleas (Ctenocephalides felis)
# Format: functional
row,Compound,"Effective concentration, systemic activity against adult cat fleas"
1,C=C(C)[C@H]1C(=O)c2c3c(cc4c5c(n1c24)[C@@]1(C)C(CC[C@H]2[C@](C)(/C=C/C=C(\C)C(=O)SCC)[C@@H](O)CC[C@@]21C)C5)C1=CC(C)(C)OC(C)(C)C1[C@@H]3O (stereo not given in full),>1 p.p.m.
2,C=C(C)[C@H]1C(=O)c2c3c(cc4c5c(n1c24)[C@@]1(C)C(CC[C@H]2[C@](C)(/C=C/C=C(\C)C(=O)N4CCN(S(C)(=O)=O)CC4)[C@@H](O)CC[C@@]21C)C5)C1=CC(C)(C)OC(C)(C)C1[C@@H]3O (stereo not given in full) [NODULISPORAMIDE],~0.01 p.p.m.
3,C=C(C)[C@H]1C(=O)c2c3c(cc4c5c(n1c24)[C@@]1(C)C(CC[C@H]2[C@](C)(/C=C/C=C(\C)C(N)=O)[C@@H](O)CC[C@@]21C)C5)C1=CC(C)(C)OC(C)(C)C1[C@@H]3O (stereo not given in full),~0.1 p.p.m.
4,C=C(C)[C@H]1C(=O)c2c3c(cc4c5c(n1c24)[C@@]1(C)C(CC[C@H]2[C@](C)(/C=C/C=C(\C)C(=O)Nc4ccc(F)cc4)[C@@H](O)CC[C@@]21C)C5)C1=CC(C)(C)OC(C)(C)C1[C@@H]3O (stereo not given in full),1 p.p.m.
5,C=C(C)[C@H]1C(=O)c2c3c(cc4c5c(n1c24)[C@@]1(C)C(CC[C@H]2[C@](C)(/C=C/C=C(\C)C(=O)N4CCN(C)CC4)[C@@H](O)CC[C@@]21C)C5)C1=CC(C)(C)OC(C)(C)C1[C@@H]3O (stereo not given in full),1 p.p.m.
6,C=C(C)[C@H]1C(=O)c2c3c(cc4c5c(n1c24)[C@@]1(C)C(CC[C@H]2[C@](C)(/C=C/C=C(\C)C(=O)N4CCN(C(=O)OCC)CC4)[C@@H](O)CC[C@@]21C)C5)C1=CC(C)(C)OC(C)(C)C1[C@@H]3O (stereo not given in full),0.1 p.p.m.
7,C=C(C)[C@H]1C(=O)c2c3c(cc4c5c(n1c24)[C@@]1(C)C(CC[C@H]2[C@](C)(/C=C/C=C(\C)C(=O)NCCC(=O)O)[C@@H](O)CC[C@@]21C)C5)C1=CC(C)(C)OC(C)(C)C1[C@@H]3O (stereo not given in full),>10 p.p.m.
8,C=C(C)[C@H]1C(=O)c2c3c(cc4c5c(n1c24)[C@@]1(C)C(CC[C@H]2[C@](C)(/C=C/C=C(\C)C(=O)N4CCCCC4)[C@@H](O)CC[C@@]21C)C5)C1=CC(C)(C)OC(C)(C)C1[C@@H]3O (stereo not given in full),~1 p.p.m.
9,C=C(C)[C@H]1C(=O)c2c3c(cc4c5c(n1c24)[C@@]1(C)C(CC[C@H]2[C@](C)(/C=C/C=O)[C@@H](O)CC[C@@]21C)C5)C1=CC(C)(C)OC(C)(C)C1[C@@H]3O (stereo not given in full),~10 p.p.m.
10,C=C(C)[C@H]1C(=O)c2c3c(cc4c5c(n1c24)[C@@]1(C)C(CC[C@H]2[C@](C)(/C=C/C=C(\C)C(=O)NCc4ccc(Cl)cc4)[C@@H](O)CC[C@@]21C)C5)C1=CC(C)(C)OC(C)(C)C1[C@@H]3O (stereo not given in full),0.1 p.p.m.
11,C=C(C)[C@H]1C(=O)c2c3c(cc4c5c(n1c24)[C@@]1(C)C(CC[C@H]2[C@](C)(/C=C/C=C(\C)C(=O)NC(C)(C)C(=O)N(C)C)[C@@H](O)CC[C@@]21C)C5)C1=CC(C)(C)OC(C)(C)C1[C@@H]3O (stereo not given in full),0.01 p.p.m.
12,C=C(C)[C@H]1C(=O)c2c3c(cc4c5c(n1c24)[C@@]1(C)C(CC[C@H]2[C@](C)(/C=C/C=C(\C)C(=O)OC)[C@@H](O)CC[C@@]21C)C5)C1=CC(C)(C)OC(C)(C)C1[C@@H]3O (stereo not given in full),~10 p.p.m.
13,C=C(C)[C@H]1C(=O)c2c3c(cc4c5c(n1c24)[C@@]1(C)C(CC[C@H]2[C@](C)(/C=C/C=C(\C)C(=O)OCCOCCO)[C@@H](O)CC[C@@]21C)C5)C1=CC(C)(C)OC(C)(C)C1[C@@H]3O (stereo not given in full),0.1 p.p.m.
14,C=C(C)[C@H]1C(=O)c2c3c(cc4c5c(n1c24)[C@@]1(C)C(CC[C@H]2[C@](C)(/C=C/C=C(\C)C(=O)NCCN(C)C)[C@@H](O)CC[C@@]21C)C5)C1=CC(C)(C)OC(C)(C)C1[C@@H]3O (stereo not given in full),10 p.p.m.
15,C=C(C)[C@H]1C(=O)c2c3c(cc4c5c(n1c24)[C@@]1(C)C(CC[C@H]2[C@](C)(/C=C/C=C(\C)C(=O)NCC(N)=O)[C@@H](O)CC[C@@]21C)C5)C1=CC(C)(C)OC(C)(C)C1[C@@H]3O (stereo not given in full),10 p.p.m.
16,C=C(C)[C@H]1C(=O)c2c3c(cc4c5c(n1c24)[C@@]1(C)C(CC[C@H]2[C@](C)(/C=C/C=C(\C)C(=O)N(C)C)[C@@H](O)CC[C@@]21C)C5)C1=CC(C)(C)OC(C)(C)C1[C@@H]3O (stereo not given in full),~0.1 p.p.m.
17,C=C(C)[C@H]1C(=O)c2c3c(cc4c5c(n1c24)[C@@]1(C)C(CC[C@H]2[C@](C)(/C=C/C=C(\C)C(=O)OCCCO)[C@@H](O)CC[C@@]21C)C5)C1=CC(C)(C)OC(C)(C)C1[C@@H]3O (stereo not given in full),10 p.p.m.
18,C=C(C)[C@H]1C(=O)c2c3c(cc4c5c(n1c24)[C@@]1(C)C(CC[C@H]2[C@](C)(/C=C/C=C(\C)C(=O)NC(C)(C)C(=O)OC)[C@@H](O)CC[C@@]21C)C5)C1=CC(C)(C)OC(C)(C)C1[C@@H]3O (stereo not given in full),1 p.p.m.
19,C=C(C)[C@H]1C(=O)c2c3c(cc4c5c(n1c24)[C@@]1(C)C(CC[C@H]2[C@](C)(/C=C/C=C(\C)C(=O)O)[C@@H](O)CC[C@@]21C)C5)C1=CC(C)(C)OC(C)(C)C1[C@@H]3O (stereo not given in full) [NOD ACID A],1 p.p.m.
20,C=C(C)[C@H]1C(=O)c2c3c(cc4c5c(n1c24)[C@@]1(C)C(CC[C@H]2[C@](C)(C=O)[C@@H](O)CC[C@@]21C)C5)C1=CC(C)(C)OC(C)(C)C1[C@@H]3O (stereo not given in full),~10 p.p.m.
21,C=C(C)[C@H]1C(=O)c2c3c(cc4c5c(n1c24)[C@@]1(C)C(CC[C@H]2[C@](C)(/C=C/C=C(\C)C(=O)OCCO)[C@@H](O)CC[C@@]21C)C5)C1=CC(C)(C)OC(C)(C)C1[C@@H]3O (stereo not given in full),~1 p.p.m.
22,C=C(C)[C@H]1C(=O)c2c3c(cc4c5c(n1c24)[C@@]1(C)C(CC[C@H]2[C@](C)(/C=C/C=C(\C)C(=O)NC)[C@@H](O)CC[C@@]21C)C5)C1=CC(C)(C)OC(C)(C)C1[C@@H]3O (stereo not given in full),~0.1 p.p.m.
23,C=C(C)[C@H]1C(=O)c2c3c(cc4c5c(n1c24)[C@@]1(C)C(CC[C@H]2[C@](C)(/C=C/C=C(\C)C(=O)NCCO)[C@@H](O)CC[C@@]21C)C5)C1=CC(C)(C)OC(C)(C)C1[C@@H]3O (stereo not given in full),0.5 p.p.m.
24,C=C(C)[C@H]1C(=O)c2c3c(cc4c5c(n1c24)[C@@]1(C)C(CC[C@H]2[C@](C)(/C=C/C=C(\C)C(=O)NCCCCCC)[C@@H](O)CC[C@@]21C)C5)C1=CC(C)(C)OC(C)(C)C1[C@@H]3O (stereo not given in full),~0.5 p.p.m.
25,C=C(C)[C@H]1C(=O)c2c3c(cc4c5c(n1c24)[C@@]1(C)C(CC[C@H]2[C@](C)(/C=C/C=C(\C)C(=O)N(CC)CCC)[C@@H](O)CC[C@@]21C)C5)C1=CC(C)(C)OC(C)(C)C1[C@@H]3O (stereo not given in full),~0.1 p.p.m.
